Source: patent US20230201217A1 (priority 2019, published 2023)
pIC50: −log10 of the molar value.

What was measured:
[1] = test system: rats, cocaine seeking behavior; conditions: 40 mg/kg i.p.; cited from earlier work
CYP2C19 = CYP2C19 (Homo sapiens, UniProt P33261); conditions: recombinant enzyme
Procedure: Control incubations were performed for each assay with appropriate positive inhibitory controls.

[2] = test system: rats trained to self-administer cocaine; conditions: 10-40 mg/kg i.p., cited from earlier work
[3] = test system: rats trained to self-administer cocaine; assay: Rat cocaine self-administration, oral 18-MC HCl; conditions: for inhibition of cocaine self-administration: 1 hour post-dose
Procedure: The relationship between in vivo efficacy and plasma drug exposure was investigated in rats trained to self-administer cocaine. […] Blood samples were collected immediately after the one hour session in the operant chamber from the arterial catheter. […] Significant differences from vehicle-treated animals were either p<0.01 (indicated as **) or p<0.05 (indicated as *).
Significant difference from vehicle-treated group (0 mg/kg on X axis) was p<0.01 (indicated as **) by one-way ANOVA.
Significant difference from baseline responding was p<0.01 (as indicated by **). […] Blood samples were collected from animals immediately after their cocaine self-administration at approximately 2 hours post dose in the first day of dosing (Day 0), and the last day of dosing (Day 4).

[4] = Toxicokinetics, 14-day oral gavage study in CD-1 mice; assay type: in vivo, mouse
Procedure: The relative metabolite concentrations were determined from plasma samples obtained on the last day of dosing in the 25 mg/kg/day group of animals using a UPLC/MS/MS method. Major metabolites were identified as M2 and M4, followed by M8 and M9. The parent 18-MC exposure was less than 1% of the total drug related material. No significant sex differences were observed.
All test article-treated animals underwent up-titration of dosage levels prior to reaching the maximum daily dose, which was administered for 14 consecutive days. […] The dose volume was 10 mL/kg for all groups. Groups 1 and 4 each consisted of 25 animals/sex and Groups 2-3 each consisted of 20 animals for each sex. Following 14 days of dose administration, 15 mice/sex/toxicology group were euthanized; the remaining 5, (10 for the control and high dose group) mice/sex/toxicology group were euthanized following a 14-day nondosing (recovery) period. Following the final blood collection (study day 13), all toxicokinetic animals (from a satellite group of 18 animals/sex/dose level) were euthanized.

[5] = Toxicokinetics, 14-day study in cynomolgus monkeys; assay type: in vivo, cynomolgus monkey
Procedure: The animals received 400 mg/kg on Day 1 and thereafter 300 mg/kg/day. The relative concentrations of the metabolites and 18-MC were determined by the peak-heights by UPLC/MS/MS method. Major metabolites were identified as M5>>M2>>P2. Metabolite M4 was on the borderline to be considered a major metabolite. The parent 18-MC exposure was less than 3% of the total drug and metabolite exposure.
Assessments of neurobehavioral effects and general toxicity were based on mortality, functional observational battery (FOB) evaluations, clinical observations, body weight, and body temperature; ophthalmoscopic, electrocardiographic examinations; and anatomic and clinical pathology. The anatomical pathology evaluations included histopathology of a full list of tissues from all animals and a comprehensive evaluation of the central nervous system (including selected peripheral nerves) utilizing whole body perfusion and special stains. Bone marrow smears from all animals were evaluated microscopically. Complete differentials and myeloid-erythroid (ME) ratios were performed. Toxicokinetic assessment was conducted for the test article and metabolites.
Systemic exposure to […] was independent of sex. […] The following discussion is therefore based on data for males and females combined.

[6] = Pre-clinical pharmacokinetics, all species tested; assay type: in vivo
Procedure: In all the species tested in pre-clinical studies, 18-MC is rapidly absorbed following oral administration with Tmax occurring in less than 0.5 hours following oral administration. After oral administration, the elimination of 18-MC is multi-compartmental. In plasma, 18-MC is highly protein bound (92% to 98%). 18-MC is also rapidly and extensively metabolized, presumably by first pass metabolism. At least […] different metabolites have been detected both in vitro and in vivo, further described below (M1-M9, P1-P3). The major metabolites (those with exposure greater than 10% of the total drug related material) appear to change with the dose and duration of dosing. Major metabolites include M2, M4, M5, M8, M9 and P2 depending on the animal species tested, and the dose and duration of dosing.
18-MC is rapidly absorbed and distributed into the brain and fat tissues in rats dosed with 40 mg/kg p.o. or i.p. The estimated volume of distribution is 8 L/kg. 18-MC levels in fat were 4.2 μM and 2.5 μM at 2 hours and 24 hours, respectively. […] On oral administration, it appears that the major metabolites are either M4 or M5, depending on the animal species tested. M4 and M5 are the primary circulating drug species because they are present at proportions greater than 18-MC. […] In the animal species tested its half-life is less than 2 hours at lower doses. […]

[7] = after 14 days of 25 mg/kg 18-MC HCl

Sequence of CYP2C19 (P33261 whole entry): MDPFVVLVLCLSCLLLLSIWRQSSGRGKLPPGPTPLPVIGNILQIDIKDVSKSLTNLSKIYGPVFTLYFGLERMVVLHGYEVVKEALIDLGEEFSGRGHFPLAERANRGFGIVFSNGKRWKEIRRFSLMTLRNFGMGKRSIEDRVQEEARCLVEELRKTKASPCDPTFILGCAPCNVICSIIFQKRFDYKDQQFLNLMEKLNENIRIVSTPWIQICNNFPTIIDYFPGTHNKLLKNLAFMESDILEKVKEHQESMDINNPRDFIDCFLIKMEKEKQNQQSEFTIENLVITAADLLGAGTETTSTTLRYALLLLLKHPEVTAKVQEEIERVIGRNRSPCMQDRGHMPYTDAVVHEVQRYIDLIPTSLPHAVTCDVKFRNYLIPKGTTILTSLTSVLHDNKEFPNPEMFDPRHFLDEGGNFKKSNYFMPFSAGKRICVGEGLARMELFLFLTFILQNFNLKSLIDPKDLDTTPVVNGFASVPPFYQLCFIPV

Question: For `COCCC1CC2CN3CCc4c([nH]c5ccccc45)C(C(=O)OC)(C2)C13.Cl` (stereo not shown) [18-MC HCl, 18-Methoxycoronaridine hydrochloride], which “reinstatement effect of cues associated with cocaine self-administration” value [1] is on record?
Answer: Its value is “blocked the reinstatement effect”.

Question: And the pIC50 (CYP2C19)?
Answer: Its pIC50 is over 5.82.

Question: And the responding for cocaine ([2]; 15 minutes prior to session)?
Answer: Its responding for cocaine is “significantly decreased”.

Question: And the responding for water [2]?
Answer: Its responding for water is “no effect”.

Question: What about the “inhibition of cocaine self-administration” value ([3]; 120 mg/kg p.o.) of the same molecule?
Answer: Its value is 50%.

Question: What about the “inhibition of cocaine self-administration on repeated dosing” value ([3]; 600 mg/kg/day, 5 consecutive days) of the same molecule?
Answer: Its value is “did not result in greater inhibition”.

Question: What about the “inhibition of cocaine self-administration” value ([3]; 800 mg/kg p.o.) of the same molecule?
Answer: The value was 82%.

Question: What about the “AUC(0-24)” value ([4]; Day 0, Female, 25 mg/kg/day) of the same molecule?
Answer: Its value is 77.8 ng·h/mL.

Question: What about the Cmax ([4]; Day 0, Female, 25 mg/kg/day) of the same molecule?
Answer: The Cmax was 30.8 ng/mL.

Question: And the Tmax ([4]; Day 0, Female, 25 mg/kg/day)?
Answer: The Tmax was 30 min.

Question: What about the “AUC(0-24)” value ([4]; Day 0, Female, 50 mg/kg/day) of the same molecule?
Answer: The value was 56.2 ng·h/mL.

Question: What about the Cmax ([4]; Day 0, Female, 50 mg/kg/day) of the same molecule?
Answer: Its Cmax is 23.7 ng/mL.

Question: What about the Tmax ([4]; Day 0, Female, 50 mg/kg/day) of the same molecule?
Answer: The Tmax was 30 min.

Question: And the “AUC(0-24)” value ([4]; Day 0, Female, 100 mg/kg/day)?
Answer: Its value is 187 ng·h/mL.

Question: And the Cmax ([4]; Day 0, Female, 100 mg/kg/day)?
Answer: Its Cmax is 51.8 ng/mL.

Question: What about the Tmax ([4]; Day 0, Female, 100 mg/kg/day) of the same molecule?
Answer: The Tmax was 60 min.

Question: And the “AUC(0-24)” value ([4]; Day 0, Male, 25 mg/kg/day)?
Answer: The value was 66.6 ng·h/mL.

Question: What about the Cmax ([4]; Day 0, Male, 25 mg/kg/day) of the same molecule?
Answer: The Cmax was 19.4 ng/mL.

Question: And the Tmax ([4]; Day 0, Male, 25 mg/kg/day)?
Answer: The Tmax was 30 min.

Question: What about the “AUC(0-24)” value ([4]; Day 0, Male, 50 mg/kg/day) of the same molecule?
Answer: Its value is 108 ng·h/mL.

Question: What about the Cmax ([4]; Day 0, Male, 50 mg/kg/day) of the same molecule?
Answer: The Cmax was 44.3 ng/mL.

Question: And the Tmax ([4]; Day 0, Male, 50 mg/kg/day)?
Answer: Its Tmax is 30 min.

Question: What about the “AUC(0-24)” value ([4]; Day 0, Male, 100 mg/kg/day) of the same molecule?
Answer: The value was 349 ng·h/mL.

Question: And the Cmax ([4]; Day 0, Male, 100 mg/kg/day)?
Answer: Its Cmax is 131 ng/mL.

Question: What about the Tmax ([4]; Day 0, Male, 100 mg/kg/day) of the same molecule?
Answer: Its Tmax is 60 min.

Question: What about the “AUC(0-24)” value ([4]; Day 13, Female, 25 mg/kg/day) of the same molecule?
Answer: The value was 54.5 ng·h/mL.

Question: And the Cmax ([4]; Day 13, Female, 25 mg/kg/day)?
Answer: Its Cmax is 25.6 ng/mL.

Question: And the Tmax ([4]; Day 13, Female, 25 mg/kg/day)?
Answer: Its Tmax is 30 min.

Question: What about the “AUC(0-24)” value ([4]; Day 13, Female, 50 mg/kg/day) of the same molecule?
Answer: The value was 119 ng·h/mL.

Question: And the Cmax ([4]; Day 13, Female, 50 mg/kg/day)?
Answer: Its Cmax is 49.9 ng/mL.

Question: What about the Tmax ([4]; Day 13, Female, 50 mg/kg/day) of the same molecule?
Answer: Its Tmax is 30 min.

Question: What about the “AUC(0-24)” value ([4]; Day 13, Female, 100 mg/kg/day) of the same molecule?
Answer: Its value is 188 ng·h/mL.

Question: What about the Cmax ([4]; Day 13, Female, 100 mg/kg/day) of the same molecule?
Answer: Its Cmax is 44.0 ng/mL.

Question: What about the T1/2 ([4]; Day 13, Female, 100 mg/kg/day) of the same molecule?
Answer: Its T1/2 is 2.45 h.

Question: And the Tmax ([4]; Day 13, Female, 100 mg/kg/day)?
Answer: Its Tmax is 30 min.

Question: And the “AUC(0-24)” value ([4]; Day 13, Male, 25 mg/kg/day)?
Answer: The value was 50.5 ng·h/mL.

Question: What about the Cmax ([4]; Day 13, Male, 25 mg/kg/day) of the same molecule?
Answer: The Cmax was 23.6 ng/mL.

Question: And the Tmax ([4]; Day 13, Male, 25 mg/kg/day)?
Answer: The Tmax was 30 min.

Question: What about the “AUC(0-24)” value ([4]; Day 13, Male, 50 mg/kg/day) of the same molecule?
Answer: The value was 164 ng·h/mL.

Question: And the Cmax ([4]; Day 13, Male, 50 mg/kg/day)?
Answer: Its Cmax is 92.9 ng/mL.

Question: And the T1/2 ([4]; Day 13, Male, 50 mg/kg/day)?
Answer: Its T1/2 is 1.78 h.

Question: And the Tmax ([4]; Day 13, Male, 50 mg/kg/day)?
Answer: The Tmax was 30 min.

Question: And the “AUC(0-24)” value ([4]; Day 13, Male, 100 mg/kg/day)?
Answer: The value was 329 ng·h/mL.

Question: What about the Cmax ([4]; Day 13, Male, 100 mg/kg/day) of the same molecule?
Answer: Its Cmax is 136 ng/mL.

Question: What about the T1/2 ([4]; Day 13, Male, 100 mg/kg/day) of the same molecule?
Answer: The T1/2 was 1.93 h.

Question: And the Tmax ([4]; Day 13, Male, 100 mg/kg/day)?
Answer: The Tmax was 30 min.

Question: With `COCC[C@H]1CC2CN3CCc4c([nH]c5ccccc45)[C@](C(=O)OC)(C2)[C@H]13` [18-MC, 18-methoxycoronaridine] as the molecule, how does the pIC50 (CYP2C19) read?
Answer: The pIC50 was 5.31.

Question: What about the AUC ([5]; Day 14, 300 mg/kg 18-MC HCl) of the same molecule?
Answer: Its AUC is 1210 ng·h/mL.

Question: What about the Cmax ([5]; Day 14, 300 mg/kg 18-MC HCl) of the same molecule?
Answer: The Cmax was 144 ng/mL.

Question: And the AUC(0-24) ([5]; Day 14, 400 mg/kg 1 day then 300 mg/kg/day, averaged across the sexes)?
Answer: Its AUC(0-24) is 144 µg·h/mL.

Question: What about the “time of median peak plasma concentration” value ([5]; all dose groups, Days 1 and 14) of the same molecule?
Answer: The value was at most 1 h.

Question: What about the AUC [4, 7] of the same molecule?
Answer: Its AUC is 251 ng·h/mL.

Question: And the Cmax [4, 7]?
Answer: The Cmax was 105 ng/mL.

Question: And the half-life ([6]; animal species tested, lower doses, oral)?
Answer: Its half-life is “less than 2 hours”.

Question: And the Tmax ([6]; oral administration, all the species tested)?
Answer: The Tmax was “less than 0.5 hours”.
